From publication PMC6151511, “Rational Design of Nucleoside–Bile Acid Conjugates Incorporating a Triazole Moiety for Anticancer Evaluation and SAR Exploration” (Molecules : A Journal of Synthetic Chemistry and Natural …, 2017)
“And” between values parts separate entries of the source, which are not always exact repeats. Equal values may be shown once. Read-outs that look alike come from different tables or passages of the source.

What was measured:
Type in all cases: cell-based
K562 leukemia cells = test: MTT assay, cell growth inhibition of K562 leukemia cells
Description: (§1) All conjugated compounds prepared via click chemistry and listed in Table 1 were evaluated in vitro for their cytotoxic activity against K562 leukemia cells and the colon cancer cell line HCT116. Normal human skin fibroblast cells were chosen as a control and cisplatin served as a reference compound. The cytotoxicity was evaluated using the MTT assay (details are reported in the Materials and Methods section). In all experiments the cell growth inhibition of K562 and HCT116 was determined for each compound at concentrations of 10, 25 and 50 μM after 72 h of treatment and up to 100 μM in the case of fibroblasts.
(§2) Cell growth inhibition assays were carried out using the leukemia cell line K562 and colon carcinoma HCT116. Cell lines were obtained from ATCC (Manassas, VA, USA) and maintained in RPMI 1640, supplemented with 10% fetal bovine serum (FBS), penicillin (100 Units mL^−1), streptomycin (100 μg mL^−1) and glutamine (2 mM) (complete medium); the pH of the medium was 7.2 and the incubation was performed at 37 °C in a 5% CO2 atmosphere. Adherent cells were routinely used at 70% of confluence and passaged every 3 days by treatment with 0.05% Trypsin-EDTA (Lonza, Walkersville, MD, USA). K562 cells were routinely fed every 3 days.
(§3) The antiproliferative activity of the compounds was tested using the 3-(4,5-dimethylthiozol-2-yl)2,5-diphenyltetrazolium bromide solution (MTT) assay. K562 and HCT116 were seeded in triplicate in 96-well trays respectively at the density of 5 × 10^3 and 10^4 in 50 μL of complete medium. Stock solutions (50 mM) of each compound were made in DMSO and diluted in complete medium to give final concentrations of 50, 25 and 10 μM. Untreated cells were placed in every plate as a negative control. The cells were exposed to the compounds, in 100 μL total volume, for 72 h.

HCT116 colon carcinoma = test: MTT assay, cell growth inhibition of HCT116 colon carcinoma; conditions: MTT, 72 h incubation, mean of three independent experiments ± SD, IC50 > 50 means inhibition <20% at 50 μM
Description: as §1, §2, §3

[1] = system: Normal human skin fibroblast cells; test: MTT assay, cytotoxicity on normal fibroblasts (control); conditions: MTT, 72 h incubation, up to 100 μM, mean of three independent experiments ± SD, IC50 > 100 means inhibition <10% at 100 μM, read-out: IC50 FIBRO
Description: as §1, §3

[2] = MTT, 72 h incubation, mean of three independent experiments ± SD, IC50 > 50 means inhibition <20% at 50 μM, read-out: IC50 K562
[3] = Homo sapiens, K562, 72 h, MTT, 72 h incubation, mean of three independent experiments ± SD, IC50 > 50 means inhibition <20% at 50 μM, read-out: IC50 K562
[4] = Homo sapiens, Skin fibroblast, 72 h

SMILES	IC50 (K562 leukemia cells; [2])	IC50 (HCT116 colon carcinoma)	IC50 [1] [µM]	IC50 (K562 leukemia cells; [3]) [µM]	IC50 (HCT116 colon carcinoma; Homo sapiens, HCT-116, 72 h) [µM]	IC50 [1, 4] [µM]	IC50 (K562 leukemia cells; Homo sapiens, K562, 72 h, extrapolated beyond the highest tested concentration of 50 μM, 72 h, read-out: IC50 K562, extrapolated value) [µM]
COC(=O)CCC(C)C1CCC2C3C(O)CC4CC(n5cc(CCCCC#Cc6nc7c(N)ncnc7n6C6OC(CO)C(O)C6O)nn5)CCC4(C)C3CCC12C (centres unmarked) [A-UDC]	> 50 µM	> 50 µM	> 100				
CC(CCN=[N+]=[N-])[C@H]1CCC2C3C(CC[C@@]21C)[C@@]1(C)CC[C@@H](O)CC1C[C@@H]3O (stereo partly drawn) [23-N3-nor-UDC, 3α,7β-Dihydroxy-5β-23-azido-24-norcholane]				15 ± 1	22 ± 1.4	81 ± 2	
CC(CCn1cc(CCCCC#Cc2cn([C@H]3C[C@H](O)[C@@H](CO)O3)c(=O)[nH]c2=O)nn1)[C@H]1CCC2C3C(CC[C@@]21C)[C@@]1(C)CC[C@@H](O)CC1C[C@@H]3O (some centres unmarked) [dU-nor-UDC]	24.8 ± 1.5 µM			≤ 25	43 ± 3.5	> 100	
CC(CCC(=O)NCCS(=O)(=O)O)[C@H]1CCC2C3C(CC[C@@]21C)[C@@]1(C)CC[C@@H](n2cc(CCCCC#Cc4nc5c(N)ncnc5n4[C@H]4C[C@H](O)[C@@H](CO)O4)nn2)CC1C[C@@H]3O (some centres unmarked) [dA-TUDCA]				> 50	> 50	> 100	
CC(CCn1cc(CCCCC#Cc2nc3c(=O)[nH]c(N)nc3n2[C@H]2C[C@H](O)[C@@H](CO)O2)nn1)[C@H]1CCC2C3C(CC[C@@]21C)[C@@]1(C)CC[C@@H](O)CC1C[C@H]3O (some centres unmarked) [dG-nor-CDC]				> 50	> 50	> 100	
COC(=O)CCC(C)[C@H]1CCC2C3C(CC[C@@]21C)[C@@]1(C)CC[C@@H](n2cc(CCCCC#Cc4cn([C@H]5C[C@H](O)[C@@H](CO)O5)c(=O)[nH]c4=O)nn2)CC1C[C@@H]3O (some centres unmarked) [dU-UDC]	21.5 ± 2 µM	23.5 ± 1.6 µM	91.5 ± 4.5	≤ 25	≤ 25	~100	
COC(=O)CCC(C)C1CCC2C3C(O)CC4CC(n5cc(CCCCC#Cc6nc7c(N)ncnc7n6C6OC(CO)C(O)C6O)nn5)CCC4(C)C3CCC12C (centres unmarked) [A-CDC]		≤ 25 µM and 23.1 µM		43.5 ± 1.3		> 100	
CC(CCn1cc(CCCCC#Cc2nc3c(N)ncnc3n2[C@H]2C[C@H](O)[C@@H](CO)O2)nn1)[C@H]1CCC2C3C(CC[C@@]21C)[C@@]1(C)CC[C@@H](O)CC1C[C@@H]3O (some centres unmarked) [dA-nor-UDC]				> 50	44.8 ± 3.5	> 100	87.1
CC(CCn1cc(CCCCC#Cc2cn([C@H]3C[C@H](O)[C@@H](CO)O3)c(=O)[nH]c2=O)nn1)[C@H]1CCC2C3C(CC[C@@]21C)[C@@]1(C)CC[C@@H](O)CC1C[C@H]3O (some centres unmarked) [dU-nor-CDC]				42.9 ± 1.9	> 50	> 100	
CC(CCC(=O)NCCS(=O)(=O)O)[C@H]1CCC2C3C(CC[C@@]21C)[C@@]1(C)CC[C@@H](n2cc(CCCCC#Cc4nc5c(=O)[nH]c(N)nc5n4[C@@H]4O[C@H](CO)[C@@H](O)[C@H]4O)nn2)CC1C[C@@H]3O (some centres unmarked) [G-TUDCA]				> 50	> 50	> 100	
CC(CCn1cc(CCCCC#Cc2nc3c(N)ncnc3n2C2OC(CO)C(O)C2O)nn1)C1CCC2C3C(O)CC4CC(O)CCC4(C)C3CCC12C (centres unmarked) [A-nor-UDC]	> 50 µM	> 50 µM	> 100				
C#CCCCCC#Cc1nc2c(=O)[nH]c(N)nc2n1[C@H]1C[C@H](O)[C@@H](CO)O1 [ALK-dG, 8-(1,7-Octadynyl)-2′-deoxyguanosine]				> 50	> 50	> 100	
CC(CCn1cc(CCCCC#Cc2nc3c(N)ncnc3n2C2OC(CO)C(O)C2O)nn1)C1CCC2C3C(O)CC4CC(O)CCC4(C)C3CCC12C (centres unmarked) [A-nor-CDC]	≤ 25 µM and 23.6 µM				44.1 ± 2.5	> 100	
N.N.[Cl][Pt][Cl] [CISPLATIN, cisplatin, reference compound]	5.4 ± 1 µM	8.5 ± 1.2 µM	23.6 ± 3.5				
